Measurements as given in patent US11478526B2, “Methods of reducing neuroinflammation or toxicity induced by amyloid beta (abeta) using glucocorticoid induced leucine zipper (GILZ) analog peptides” (INDIANA UNIVERSITY RESEARCH AND TECHNOLOGY CORPORATION, priority 2016, dated 2022).

What was measured:
[1] = target: T1, Recombinant human p65 protein (r-p65) (Homo sapiens, UniProt Q04206); assay: Plate binding ELISA of GA/PGA with r-p65 (KD by method of Friguet)
T1 construct: purchased Ori-Gene Technologies Inc., Rockville, Md; TP320780
Method: We used similar method to determine direct binding kinetics of GA hexapeptides with human r-p65. […] Absorbance at 650 nm was measured with a mixing time of 30 s using BIORAD microplate reader. […] The dissociation constant of the interaction between the GA or the control peptide and r-p65 was determined by the method of Friguet et al., as described. A fraction of the bound r-p65 (x) and the ratio of bound r-p65 to the free GA or control peptide (y) was determined by the equations: x=(A0−A)/(A0), where A0 is the absorbance of r-p65anti-p65 complex in the absence of bound GA or control peptide and y=(A0−A)/(a0−i0)×(A0−A)/(A0), where a0 is the total concentration of GA or control peptide and i0 is the total concentration of r-p65.
Kinetics of PGA:-p65 interaction: The binding kinetics of top five PGA with full length human r-p65 was assessed as described. Plate bound GILZ-P or PGA at increasing concentrations was probed with r-p65-DDK (Ori-Gene Technologies Inc., Rockville, Md.) at constant concentration and detected with anti-DDK.

[2] = system: activated p65 NF-κB subunit; assay: Nuclear p65 DNA binding (TransAM NF-κB ELISA) in HFB; assay type: cell-based, human; details: Aβ1-42 exposed, 4 hours
Method: (§1) Fetal brain materials (10-20 g) were shipped overnight in chilled Hibernate-E medium (Invitrogen) supplemented with B27 (Invitrogen), GlutaMAX (Invitrogen) and antibiotic-antimycotic solution (Cellgro). HFB were prepared and cultured as described. Briefly, cells were cultured in Neurobasal medium (Invitrogen) without phenol red supplemented with 1×B27, […] GlutaMAX, 1×antibiotic cocktail, 5 ng/mL recombinant fibroblast growth factor 2 (bFGF) (Invitrogen), and 2 μL/mL Normocin (InVivoGen, San Diego, Calif., USA). Cells were counted and seeded onto poly-D-lysine (Sigma-Aldrich) coated 24-well plates (Corning, Lowell, Mass., USA) at 1.5×10^5 cells per well and maintained at 37° C. in a 5% CO2 incubator. Half media changes were performed every 4th day of culture and morphology was monitored via phase contrast microscopy. Culture medium was removed from cells on day 17 (DIV17) and replaced with Neurobasal medium with B27. Appropriate wells were then added vehicle, or carrier peptide or individual GA or control peptide (at 50 μM) for 30 min followed by exposure to Aβ1-42 at a final concentration of 10 μM/well and incubated for 4 hours or 48 hours. Cells and conditioned media were harvested and stored for further analysis. Relative ATP concentration was measured using the CTG kit (Promega). Data is presented as ΔRLU=RLU of Aβ1-42 exposed cells-RLU unexposed cells. Conditioned media collected were assessed for specific cytokines using the OptEIA kits (BD Biosciences). Nuclear and cytoplasmic fractions were extracted using the CelLytic™ NuCLEAR™ Extraction Kit (Sigma) following manufacturer's protocol. Five microgram of nuclear extracts was incubated in a 96-well plate coated with oligonucleotides containing the NF-κβ consensus nucleotide sequence (5′-[…]-3′) (SEQ ID NO: 30). The activated NF-κβ bound to DNA was detected by anti-p65 antibody followed by a peroxidase coupled secondary antibody and substrate using the TransAM kit protocol (Active Motif). Nuclear extracts of Raji cells was used as the positive control.
(§2) Select PGA protects against Aβ1-42 induced toxicity, prevents p65 activation and cytokine response in human fetal brain (HFB) cells. […] Viability in terms of relative luminescent Units (RLU) was quantified using a Glowmax luminometer (Promega, Wis.). Data are presented as ARLU=RLU of Aβ1-42 exposed cells-RLU of unexposed cells. […] The mean RLU of vehicle treated HFB varied between 7352.75+/−1265.2 and 16157.5+/−4950. […] The culture supernatants were assessed for cytokines by ELISA (R&D Systems, Minn.). […] Primary HFB cultured similarly and harvested at the end of 4 hours was assessed for nuclear p65 using TransAM kit for NF-κB p65 (Active Motif, Calif.).

[3] = system: primary human fetal brain cells (HFB); assay: CTG viability of primary human fetal brain cultures with or without Aβ1-42; assay type: cell-based; details: for viability of Aβ1-42 exposed HFB cells: Aβ1-42 10 μM
Method: Functional assays in human primary mixed brain cultures (HFB). Primary cultures of mixed HFB were prepared from the brain parenchyma of aborted fetuses (80-100 days gestational age). The tissues were obtained from the Birth Defects Research Laboratory (BDRL) at the University of Washington, Seattle with approval from the Indiana University Institutional Review Board (IRB). The IRB determined that the use of anonymous human biological materials received from this depository is not considered as human subjects research (supplementary document, s1). The NIH funded BDRL tissue distribution program operates separately in full compliance with all relevant state and federal laws and regulations with donors providing written informed consent.
as §1, with “Appropriate wells were then added vehicle, or carrier peptide or individual GA or control peptide (at 50 μM) for 30 min followed by exposure to Aβ1-42 at a final concentration of 10 μM/well and incubated for 4 hours or 48 hours.” left out
as §2, with “16157.5+/−4950. Average RLU of cultures exposed to Aβ1-42 varied between 6067.25+/−903.05 and 11574.25+/−4139.3 in different experiments.” for “16157.5+/−4950.”

[4] = 50 μM peptide, vs untreated Aβ1-42 exposed cultures
[5] = dissociation constant, KD, method of Friguet et al.
[6] = PGA at IC50 concentration, 24 hours

T1 sequence (Q04206 whole entry): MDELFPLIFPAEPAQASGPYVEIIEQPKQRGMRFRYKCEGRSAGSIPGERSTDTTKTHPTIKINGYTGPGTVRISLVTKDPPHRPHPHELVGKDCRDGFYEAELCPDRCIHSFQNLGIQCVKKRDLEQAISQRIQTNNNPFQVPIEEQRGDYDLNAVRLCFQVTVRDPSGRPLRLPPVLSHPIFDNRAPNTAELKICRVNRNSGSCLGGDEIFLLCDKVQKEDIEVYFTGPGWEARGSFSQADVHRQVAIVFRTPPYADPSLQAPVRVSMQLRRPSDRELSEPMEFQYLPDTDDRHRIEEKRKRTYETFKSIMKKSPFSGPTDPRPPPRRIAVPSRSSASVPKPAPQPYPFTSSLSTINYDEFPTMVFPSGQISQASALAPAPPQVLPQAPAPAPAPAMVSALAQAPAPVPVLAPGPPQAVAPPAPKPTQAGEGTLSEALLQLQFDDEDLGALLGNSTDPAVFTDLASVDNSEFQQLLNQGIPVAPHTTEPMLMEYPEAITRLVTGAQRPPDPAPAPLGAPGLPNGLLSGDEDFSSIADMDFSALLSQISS

Row | Substance | affinity for binding r-p65 relative to r-GILZ [1] | nuclear p65 ([2]; 50 μM peptide) | viability of Aβ1-42 exposed HFB cells [3, 4] | Kd ([1]; KD (uM), score 1/0) [µM] | Kd [1, 5] [µM] | nuclear p65 ([2]; PGA at IC50 concentration) | tolerance of HFB cultures (ΔRLU, CTG) ([3]; PGA at IC50 concentration) | viability of Aβ1-42 exposed HFB cells [3, 6]
1 | Ac-EPAPESPQV-NH2 [GA-2] | greater affinity for binding r-p65 than the full length r-GILZ | trend towards decreased nuclear p65 | significantly higher | – | – | – | – | –
2 | Ac-EPAPESPQV-NH2 [PGA-4] | – | – | – | > 3 | 3.28 | decreased nuclear p65 | well tolerated | significantly higher
3 | Ac-EPAPLAPYG-NH2 [GA-1] | greater affinity for binding r-p65 than the full length r-GILZ | trend towards decreased nuclear p65 | significantly higher | – | – | – | – | –
4 | Ac-EPAPLAPYG-NH2 [PGA-2] | – | – | – | < 3 | 2.29 | decreased nuclear p65 | well tolerated | significantly higher
